Measurements reported in BindingDB's records for doi:10.1016/j.bmc.2016.01.035 (Tohoku Pharmaceutical University, 2016).

Assay: Agonist activity at ERalpha in human MCF7 cells assessed as induction of cell proliferation incubated for 5 days by WST-8 assay

## CC(=O)N1C(C)(C)CC(=C(c2ccc(O)cc2)c2ccc(O)cc2)CC1(C)C
  EC50: 0.22 nM
